# Reference: ChEMBL document CHEMBL1139648, “Designing rapid onset selective serotonin re-uptake inhibitors. Part 1: Structure-activity relationships of substituted (1S,4S)-4-(3,4-dichlorophenyl)-N-methyl-1,2,3,4-tetrahydro-1-naphthaleneamine” (Bioorg Med Chem Lett, 2006)
# What was measured:
# [1] = molecular target: Sodium-dependent noradrenaline transporter (Homo sapiens, UniProt P23975); experiment: Inhibition of noradrenaline re-uptake at human noradrenaline transporter expressed in HEK293 cells; type: cell-based
# [2] = Half life in human liver microsome; type: ADME; settings: liver microsomes
# [3] = Oral bioavailability in rat at 1 mg/kg, po; type: ADME, organism-based; settings: in vivo
# [4] = Half life in rat liver microsome; type: ADME; settings: liver microsomes
# [5] = Half life in rat at 1 mg/kg, iv or 1 mg/kg, po; type: ADME, organism-based; settings: in vivo
# [6] = Volume of distribution in rat at 1 mg/kg, iv or 1 mg/kg, po; type: ADME, organism-based; settings: in vivo, read-out: Vdss
# [7] = Dissociation constant, pKa of the compound; type: physicochemical
# [8] = Distribution coefficient of the compound, log D; type: physicochemical; settings: octanol/water
# Rattus norvegicus [9] = experiment: Unbound volume of distribution in rat at 1 mg/kg, iv or 1 mg/kg, po; type: ADME, organism-based; settings: in vivo
# [10] = Tmax in rat at 1 mg/kg, iv or 1 mg/kg, po; type: ADME, organism-based; settings: in vivo
# [11] = Blood clearance in rat in CNS penetration assay at 3 mg/kg, iv or 5 mg/kg, po; type: ADME, organism-based; settings: whole blood
# Rattus norvegicus [12] = experiment: Unbound volume of distribution in rat at 3 mg/kg, iv or 5 mg/kg, po; type: ADME, organism-based; settings: in vivo
# [13] = Tmax in rat at 3 mg/kg, iv or 5 mg/kg, po; type: ADME, organism-based; settings: in vivo
# [14] = Half life in rat at 3 mg/kg, iv or 5 mg/kg, po; type: ADME, organism-based; settings: in vivo
# [15] = Oral bioavailability in rat at 5 mg/kg, po; type: ADME, organism-based; settings: in vivo
# [16] = Volume of distribution in rat at 3 mg/kg, iv or 5 mg/kg, po; type: ADME, organism-based; settings: in vivo, read-out: Vdss
# Sequence of Sodium-dependent noradrenaline transporter (P23975 whole entry): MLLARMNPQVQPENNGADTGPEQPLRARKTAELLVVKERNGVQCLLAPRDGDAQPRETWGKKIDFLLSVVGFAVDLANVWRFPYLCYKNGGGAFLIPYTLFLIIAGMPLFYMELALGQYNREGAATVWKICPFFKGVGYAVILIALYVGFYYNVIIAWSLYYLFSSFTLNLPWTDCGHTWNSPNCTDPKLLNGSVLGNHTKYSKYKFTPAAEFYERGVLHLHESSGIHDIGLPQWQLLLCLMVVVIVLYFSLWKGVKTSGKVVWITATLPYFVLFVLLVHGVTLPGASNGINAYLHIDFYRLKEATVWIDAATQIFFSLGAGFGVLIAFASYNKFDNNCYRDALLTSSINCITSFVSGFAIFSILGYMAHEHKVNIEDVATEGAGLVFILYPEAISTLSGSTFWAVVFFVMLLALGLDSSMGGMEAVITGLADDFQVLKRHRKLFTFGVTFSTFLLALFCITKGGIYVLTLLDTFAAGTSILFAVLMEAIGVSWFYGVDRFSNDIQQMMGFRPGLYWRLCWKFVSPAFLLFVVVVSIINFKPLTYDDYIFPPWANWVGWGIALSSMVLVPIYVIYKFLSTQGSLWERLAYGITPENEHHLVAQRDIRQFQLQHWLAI
IC50 [1] [µM],Compound,further results
11.5,CN[C@H]1CC[C@@H](c2ccc(Cl)c(Cl)c2)c2cc(C(=O)N(C)C)ccc21,–
–,CN[C@H]1CC[C@@H](c2ccc(Cl)c(Cl)c2)c2ccccc21 [SERTRALINE],half-life [2]: > 2 h; bioavailability [3]: 51%; half-life [4]: 0.383 h; half-life [5]: 5 h; Vd [6]: 52 L/kg; pKa [7]: 9.3; Log D [8]: 3.1; Vdu (Rattus norvegicus [9]): 1900 L/kg; Tmax [10]: 4 h
0.31,CN[C@@H]1CC[C@H](c2ccc(Cl)c(Cl)c2)c2ccc(S(N)(=O)=O)cc21,–
0.65,CN[C@H]1CC[C@@H](c2ccc(Cl)c(Cl)c2)c2ccc(-n3ccnn3)cc21,–
3.2,CN[C@H]1CC[C@@H](c2ccc(Cl)c(Cl)c2)c2ccc(C#N)cc21,–
0.41,CN[C@H]1CC[C@@H](c2ccc(Cl)c(Cl)c2)c2ccc(C(N)=O)cc21,pKa [7]: 8.5; logD [8]: 2.3
0.45,CN[C@H]1CC[C@@H](c2ccc(Cl)c(Cl)c2)c2ccc(C[S+](C)[O-])cc21 (some centres not stated),–
9.1,CN[C@H]1CC[C@@H](c2ccc(Cl)c(Cl)c2)c2cc(C(=O)O)c(NS(C)(=O)=O)cc21,–
0.98,CN[C@H]1CC[C@@H](c2ccc(Cl)c(Cl)c2)c2ccc(CO)cc21,–
1.8,CN[C@H]1CC[C@@H](c2ccc(Cl)c(Cl)c2)c2cc([S+](C)[O-])ccc21 (some centres not stated),–
0.06,CN[C@H]1CC[C@@H](c2ccc(Cl)c(Cl)c2)c2ccc(NS(C)(=O)=O)cc21,–
2.1,CN[C@H]1CC[C@@H](c2ccc(Cl)c(Cl)c2)c2cc(C(N)=O)c(NS(C)(=O)=O)cc21,–
1.1,CN[C@H]1CC[C@@H](c2ccc(Cl)c(Cl)c2)c2cc(C(N)=O)ccc21,–
0.96,CN[C@H]1CC[C@@H](c2ccc(Cl)c(Cl)c2)c2ccc(CNS(C)(=O)=O)cc21,–
0.31,CN[C@@H]1CC[C@@H](c2ccc(Cl)c(Cl)c2)c2ccc(S(N)(=O)=O)cc21,–
0.54,CN[C@H]1CC[C@@H](c2ccc(Cl)c(Cl)c2)c2ccc(S(=O)(=O)NCCO)cc21,–
0.011,CN[C@H]1CC[C@H](c2ccc(Cl)c(Cl)c2)c2ccc(S(N)(=O)=O)cc21,–
2.1,CN[C@H]1CC[C@@H](c2ccc(Cl)c(Cl)c2)c2cc(S(N)(=O)=O)ccc21,–

IC50 [1] [µM],Compound,further results
2,CN[C@H]1CC[C@@H](c2ccc(Cl)c(Cl)c2)c2ccc([S+](C)[O-])cc21 (some centres not stated),–
0.92,CN[C@H]1CC[C@@H](c2ccc(Cl)c(Cl)c2)c2ccc(CC(N)=O)cc21,–
1.25,CN[C@H]1CC[C@@H](c2ccc(Cl)c(Cl)c2)c2ccc(S(=O)(=O)NC)cc21,logD [8]: 2.8
1.5,CNC(=O)c1cccc2c1[C@@H](NC)CC[C@H]2c1ccc(Cl)c(Cl)c1,–
0.77,CN[C@H]1CC[C@@H](c2ccc(Cl)c(Cl)c2)c2ccc(S(N)(=O)=O)cc21,clearance [11]: 60 mL/min/kg; half-life [2]: > 2 h; Vdss (Rattus norvegicus [12]): 600 L/kg; Tmax [13]: 1 h; half-life [4]: > 2 h; half-life [14]: 4 h; bioavailability [15]: 44%; pKa [7]: 8.4; logD [8]: 2.3; Vd [16]: 19 L/kg
9.6,CN[C@H]1CC[C@@H](c2ccc(Cl)c(Cl)c2)c2ccc(CC(=O)O)cc21,–
5,CNC(=O)c1ccc2c(c1)[C@H](c1ccc(Cl)c(Cl)c1)CC[C@@H]2NC,–
4.2,CN[C@H]1CC[C@@H](c2ccc(Cl)c(Cl)c2)c2cc(S(C)(=O)=O)ccc21,–
1.25,CN[C@H]1CC[C@@H](c2ccc(Cl)c(Cl)c2)c2ccc(C(=O)OC)cc21,–
2.7,CN[C@H]1CC[C@@H](c2ccc(Cl)c(Cl)c2)c2ccc(S(=O)(=O)N(C)C)cc21,–
2.1,CN[C@H]1CC[C@@H](c2ccc(Cl)c(Cl)c2)c2ccc(S(C)(=O)=O)cc21,–
0.76,CN[C@H]1CC[C@@H](c2ccc(Cl)c(Cl)c2)c2ccc(-n3cncn3)cc21,–
20.3,CN[C@H]1CC[C@@H](c2ccc(Cl)c(Cl)c2)c2cc(C(=O)O)ccc21,–
–,CNC(=O)c1ccc2c(c1)[C@@H](NC)CC[C@H]2c1ccc(Cl)c(Cl)c1,pKa [7]: 8.8; logD [8]: 2.8
0.88,CN[C@H]1CC[C@@H](c2ccc(Cl)c(Cl)c2)c2cccc(C(=O)O)c21,–
2.9,CN[C@H]1CC[C@@H](c2ccc(Cl)c(Cl)c2)c2ccc([N+](=O)[O-])cc21,–
1.15,CN[C@H]1CC[C@@H](c2ccc(Cl)c(Cl)c2)c2cccc(C(N)=O)c21,–
